This passage reports IC50 results from ChEMBL document CHEMBL4627347, “The signal peptide as a new target for drug design” (Bioorg Med Chem Lett, 2020).

Assay [1] deals with T-cell surface glycoprotein CD4 (Homo sapiens, UniProt P01730). The assay is described as follows: Inhibition of FITC-tagged human CD4 expressed in human SUP-T1 cells after 72 hrs by FACS analysis. It is filed as cell-based.
Assay [2] addresses T1, Sortilin (Homo sapiens, UniProt Q99523).
T1 sequence (Q99523 whole entry): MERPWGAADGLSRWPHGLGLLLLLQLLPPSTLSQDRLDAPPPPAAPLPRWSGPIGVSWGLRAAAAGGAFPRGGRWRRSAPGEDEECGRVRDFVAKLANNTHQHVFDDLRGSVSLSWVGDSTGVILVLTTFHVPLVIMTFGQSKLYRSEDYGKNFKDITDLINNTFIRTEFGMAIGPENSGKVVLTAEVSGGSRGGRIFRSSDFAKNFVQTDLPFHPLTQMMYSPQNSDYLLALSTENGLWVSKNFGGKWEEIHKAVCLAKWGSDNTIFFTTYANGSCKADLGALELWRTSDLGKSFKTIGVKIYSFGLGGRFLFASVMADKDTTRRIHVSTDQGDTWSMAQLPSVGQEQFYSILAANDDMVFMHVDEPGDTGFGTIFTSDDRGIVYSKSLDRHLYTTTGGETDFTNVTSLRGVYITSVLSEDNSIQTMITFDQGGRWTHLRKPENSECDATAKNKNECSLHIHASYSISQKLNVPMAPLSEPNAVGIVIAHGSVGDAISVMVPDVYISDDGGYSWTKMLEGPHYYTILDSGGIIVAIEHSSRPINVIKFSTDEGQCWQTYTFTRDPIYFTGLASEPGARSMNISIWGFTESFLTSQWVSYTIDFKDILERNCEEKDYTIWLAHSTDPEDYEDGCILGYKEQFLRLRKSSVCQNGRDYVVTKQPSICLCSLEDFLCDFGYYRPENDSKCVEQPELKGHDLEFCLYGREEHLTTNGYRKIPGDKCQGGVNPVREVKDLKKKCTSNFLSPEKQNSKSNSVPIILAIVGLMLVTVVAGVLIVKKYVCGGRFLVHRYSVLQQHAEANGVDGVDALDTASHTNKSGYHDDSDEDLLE
The assay is described as follows: Inhibition of GFP-tagged Sortilin (unknown origin) expressed in HEK293T cells after 42 hrs by FACS analysis. It is filed as cell-based, HEK-293T. On the technique in general: In flow cytometry, cells or beads pass a laser one at a time.

Take `C=C1CN(S(=O)(=O)c2ccc(C)cc2)CCCN(Cc2ccccc2)CCCN(S(=O)(=O)c2ccc(C)cc2)C1`: the results for the IC50 in assay [1] and in assay [2] were 210 nM and 380 nM, respectively.
